Laboratory results as given in patent US10285983B2, “3-(1H-pyrrolo[2,3-B]pyridin-2-yl)-1H-pyrazolo[3,4-B] pyridines and therapeutic uses thereof” (Samumed, LLC, priority 2015, dated 2019).

Assays:
Assay type in all cases: cell-based
SW480 colon cancer cells = test: Cell viability assay (CellTiter-Blue); conditions: Homo sapiens, 96 h, four days; for inhibition at 10 µM: given for EC50 >10 μM, read-out: percent inhibition at 10 μM
Outline: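 SW480 colon cancer cells (~2×10^3/well) exposed to 8-point 1:3 dilutions from 10 μM to 0.0045 μM for four days at 37 °C/5% CO2. Viability read by resazurin (CellTiter-Blue) fluorescence after ~3 h, Ex 560/Em 590 nm. EC50 from non-linear regression; percent inhibition at 10 μM given when EC50 >10 μM.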

[1] = test system: primary human fibroblasts derived from IPF patients (LL29 cells); test: Inhibition of fibrotic process, αSMA staining in TGF-β1 treated LL29 fibroblasts; conditions: Fibroblast, 96 h, TGF-β1 20 ng/mL, 4 days; for EC50: % αSMA positive cells; for inhibition at 10 µM: given for EC50 >10 μM, read-out: percent inhibition at 10 μM
Outline: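 IPF-patient LL29 lung fibroblasts in 1% FBS medium received compound (11-point, 1:2 dilution, 0.1% DMSO) plus TGF-β1 20 ng/mL, 4 days at 37 °C. Percent αSMA-positive cells among SYTOX-negative cells quantified by immunofluorescence imaging, normalized to TGF-β1/DMSO wells. EC50 by non-linear regression on triplicates; above 10 μM, % inhibition at 10 μM given.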

[2] = test system: IL-6 (THP-1 human monocyte cell line); test: IL-6 inhibition in LPS-stimulated THP-1 cells (HTRF); conditions: LPS 500 ng/mL; for EC50: 22 hours, IL6 HTRF; for inhibition at 10 µM: given for EC50 >10 μM, read-out: percent inhibition at 10 μM
Outline: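 THP-1 cells, serum-reduced to 1% FBS for 24 h, preincubated 2 h at 37° C with compound (10-point, 1:3 series, 0.1% DMSO), then stimulated with 500 ng/mL LPS for 22 h. IL-6 quantified by HTRF 665/620 nm ratio, normalized to DMSO; EC50 by four-parameter fit, else percent inhibition at 10 μM.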

Row | SMILES | EC50 (SW480 colon cancer cells) [µM] | inhibition at 10 µM (SW480 colon cancer cells) [%] | EC50 [1] [µM] | inhibition at 10 µM [1] [%] | EC50 [2] [µM] | inhibition at 10 µM [2] [%]
1 | O=C(Nc1cncc(-c2cnc3[nH]nc(-c4cc5c(-c6ccc(F)cc6)ccnc5[nH]4)c3c2)c1)C1CCCCC1 [Compound 51, N-(5-(3-(4-(4-Fluorophenyl)-1H-pyrrolo[2,3-b]pyridin-2-yl)-1H-pyrazolo [3,4-b]pyridin-5-yl)pyridin-3-yl)cyclohexanecarboxamide] | > 10 | 17.7 | > 10 | 1.3 | > 10 | 19.4
2 | Cc1ncc(-c2cnc3[nH]nc(-c4cc5c(-c6cc(F)cc(NCCN(C)C)c6)ccnc5[nH]4)c3c2)n1C [Compound 781, N^1-(3-(2-(5-(1,2-Dimethyl-1H-imidazol-5-yl)-1H-pyrazolo[3,4-b]pyridin-3-yl)-1H-pyrrolo[2,3-b]pyridin-4-yl)-5-fluorophenyl)-N^2,N^2-dimethylethane-1,2-diamine] | > 10 | 0 | 0.938 |  | > 10 | 44.5
3 | c1ccc(-c2cnc3[nH]nc(-c4cc5c(-c6ccncc6)ccnc5[nH]4)c3c2)nc1 [Compound 140, 5-(Pyridin-2-yl)-3-(4-(pyridin-4-yl)-1H-pyrrolo[2,3-b]pyridin-2-yl)-1H-pyrazolo[3,4-b]pyridine] | > 10 | 20.2 | > 10 | 24.5 | > 10 | 24.5
4 | O=C(Nc1cncc(-c2cnc3[nH]nc(-c4cc5c(-c6ccncc6)ccnc5[nH]4)c3c2)c1)c1ccccc1 [Compound 123, N-(5-(3-(4-(Pyridin-4-yl)-1H-pyrrolo[2,3-b]pyridin-2-yl)-1H-pyrazolo[3,4-b]pyridin-5-yl)pyridin-3-yl)benzamide] | > 10 | 12 | > 10 | 0 | > 10 | 15.1
5 | CC(C)CC(=O)Nc1cncc(-c2cnc3[nH]nc(-c4cc5c(-c6ccc(F)cc6)ccnc5[nH]4)c3c2)c1 [Compound 30, N-(5-(3-(4-(4-Fluorophenyl)-1H-pyrrolo[2,3-b]pyridin-2-yl)-1H-pyrazolo [3,4-b]pyridin-5-yl)pyridin-3-yl)-3-methylbutanamide] | > 10 | 18.5 | > 10 | 12.8 | > 10 | 0
6 | CC(C)C(=O)Nc1cncc(-c2cnc3[nH]nc(-c4cc5c(-c6cccnc6)ccnc5[nH]4)c3c2)c1 [Compound 93, N-(5-(3-(4-(Pyridin-3-yl)-1H-pyrrolo[2,3-b]pyridin-2-yl)-1H-pyrazolo[3,4-b]pyridin-5-yl)pyridin-3-yl)isobutyramide] | > 10 | 10.1 | > 10 | 42.1 | > 10 | 26.2
7 | Fc1ccc(-c2ccnc3[nH]c(-c4n[nH]c5ncc(-c6cncc(CN7CCCC7)c6)cc45)cc23)cc1 [Compound 42, 3-(4-(4-Fluorophenyl)-1H-pyrrolo[2,3-b]pyridin-2-yl)-5-(5-(pyrrolidin-1-ylmethyl)pyridin-3-yl)-1H-pyrazolo[3,4-b]pyridine] | > 10 | 24.8 | 4.98 |  | > 10 | 36.8
8 | Fc1cccc(-c2ccnc3[nH]c(-c4n[nH]c5ncc(-c6ccncc6)cc45)cc23)c1 [Compound 18, 3-(4-(3-Fluorophenyl)-1H-pyrrolo[2,3-b]pyridin-2-yl)-5-(pyridin-4-yl)-1H-pyrazolo[3,4-b]pyridine] | > 10 | 23.2 | 1.45 |  | > 10 | 37.2
9 | CN(C)CCNc1cc(F)cc(-c2ccnc3[nH]c(-c4n[nH]c5ncc(-c6cncc(NC(=O)C(C)(C)C)c6)cc45)cc23)c1 [Compound 456, N-(5-(3-(4-(3-((2-(Dimethylamino)ethyl)amino)-5-fluorophenyl)-1H-pyrrolo [2,3-b]pyridin-2-yl)-1H-pyrazolo[3,4-b]pyridin-5-yl)pyridin-3-yl)pivalamide] | > 10 | 0 | > 10 | 0 | 1.52 | 
10 | c1cc(-c2cnc3[nH]nc(-c4cc5c(-c6ccncc6)ccnc5[nH]4)c3c2)ccn1 [Compound 130, 5-(Pyridin-4-yl)-3-(4-(pyridin-4-yl)-1H-pyrrolo[2,3-b]pyridin-2-yl)-1H-pyrazolo[3,4-b]pyridine] | > 10 | 5.7 | > 10 | 20.5 | > 10 | 45.9
11 | O=C(Nc1cncc(-c2cnc3[nH]nc(-c4cc5c(-c6cccnc6)ccnc5[nH]4)c3c2)c1)C1CC1 [Compound 104, N-(5-(3-(4-(Pyridin-3-yl)-1H-pyrrolo[2,3-b]pyridin-2-yl)-1H-pyrazolo[3,4-b]pyridin-5-yl)pyridin-3-yl)cyclopropanecarboxamide] | > 10 | 10.4 | > 10 | 19.6 | > 10 | 35.8
12 | c1cncc(-c2cnc3[nH]nc(-c4cc5cccnc5[nH]4)c3c2)c1 [Compound 256, 5-(Pyridin-3-yl)-3-(1H-pyrrolo[2,3-b]pyridin-2-yl)-1H-pyrazolo[3,4-b]pyridine] | > 10 | 5.8 | 0.529 |  | 0.121 | 
13 | CC(C)Nc1cncc(-c2cnc3[nH]nc(-c4cc5c(-c6ccccc6F)ccnc5[nH]4)c3c2)c1 [Compound 68, 5-(3-(4-(2-Fluorophenyl)-1H-pyrrolo[2,3-b]pyridin-2-yl)-1H-pyrazolo[3,4-b]pyridin-5-yl)-N-isopropylpyridin-3-amine] | > 10 | 1 | 8.54 |  | > 10 | 42.9
14 | CCC(=O)Nc1cncc(-c2cnc3[nH]nc(-c4cc5c(-c6cccc(F)c6)ccnc5[nH]4)c3c2)c1 [Compound 1, N-(5-(3-(4-(3-Fluorophenyl)-1H-pyrrolo[2,3-b]pyridin-2-yl)-1H-pyrazolo [3,4-b]pyridin-5-yl)pyridin-3-yl)propionamide] | > 10 | 9.8 | > 10 | 0 | > 10 | 23.8
15 | Fc1cccc(-c2ccnc3[nH]c(-c4n[nH]c5ncc(-c6cncc(OCc7ccccc7)c6)cc45)cc23)c1 [Compound 518, 5-(5-(Benzyloxy)pyridin-3-yl)-3-(4-(3-fluorophenyl)-1H-pyrrolo[2,3-b]pyridin-2-yl)-1H-pyrazolo[3,4-b]pyridine] | > 10 | 16.3 | > 10 | 0 | > 10 | 6.3
16 | CCCCC(=O)Nc1cncc(-c2cnc3[nH]nc(-c4cc5c(-c6ccccc6F)ccnc5[nH]4)c3c2)c1 [Compound 75, N-(5-(3-(4-(2-Fluorophenyl)-1H-pyrrolo[2,3-b]pyridin-2-yl)-1H-pyrazolo [3,4-b]pyridin-5-yl)pyridin-3-yl)pentanamide] | > 10 | 23.6 | > 10 | 0 | > 10 | 33.8
17 | O=C(Nc1cncc(-c2cnc3[nH]nc(-c4cc5cccnc5[nH]4)c3c2)c1)C1CCCC1 [Compound 274, N-(5-(3-(1H-Pyrrolo[2,3-b]pyridin-2-yl)-1H-pyrazolo[3,4-b]pyridin-5-yl)pyridin-3-yl)cyclopentanecarboxamide] | > 10 | 54.2 | 0.76 |  | 0.415 | 
18 | CC(C)(C)CC(=O)Nc1cncc(-c2cnc3[nH]nc(-c4cc5cccnc5[nH]4)c3c2)c1 [Compound 268, N-(5-(3-(1H-Pyrrolo[2,3-b]pyridin-2-yl)-1H-pyrazolo[3,4-b]pyridin-5-yl)pyridin-3-yl)-3,3-dimethylbutanamide] | 1.99 |  | 0.42 |  | 0.359 | 
19 | Cn1cc(-c2cnc3[nH]nc(-c4cc5cccnc5[nH]4)c3c2)cn1 [Compound 652, 5-(1-Methyl-1H-pyrazol-4-yl)-3-(1H-pyrrolo[2,3-b]pyridin-2-yl)-1H-pyrazolo[3,4-b]pyridine] | > 10 | 9.2 | 0.23 |  | 0.772 | 
20 | Fc1cccc(-c2ccnc3[nH]c(-c4n[nH]c5ncc(-c6ccccn6)cc45)cc23)c1 [Compound 28, 3-(4-(3-Fluorophenyl)-1H-pyrrolo[2,3-b]pyridin-2-yl)-5-(pyridin-2-yl)-1H-pyrazolo[3,4-b]pyridine] | > 10 | 16.3 | > 10 | 52 | > 10 | 49.5
